Reference: US20220054384A1, “MICROBIOSTATIC SOAP THAT REDUCES THE TRANSMISSION OF MICROBES” (GPCP IP Holdings LLC, priority 2018, published 2022)

Legend:
[1] = tested on: Staphylococcus aureus ATCC 6538 and Escherichia coli ATCC 15225; experiment: Bacteriostatic MIC of release agents (modified standard MIC protocol, tube growth then streak onto TSA plate); assay type: cell-based; conditions: lower bacteriostatic limit (bacteriostatic MIC): no growth in tube, growth on TSA plate
Excerpt: Release agents for use in the described soaps and hard surface cleaners are those materials that can coat all or part of a microbe or spore wall, but not penetrate the cellular or spore wall, rendering the microbe unable to infect skin or reproduce at the time of application. Not only does the release agent coat the microbe, it also coats skin. Because the microbe coating and skin coating have similar charges, the microbe is repelled from the skin surface into the soap layer. After rinsing the soap, the material is disrupted and releases, allowing regrowth of the microbe. […] However, when the solution is swabbed onto a growth media plate, polymer disruption and release occur, allowing the microbe to resume growth. […] A series of compounds were tested to determine whether microbes exposed to these compositions and rinsed off were still viable to regrow. The standard MIC protocol (Internal NTC Microbiology Lab Method: MB-025) was followed for this work with some modifications. The organisms used were Staphylococcus aureus ATCC® 6538™ and Escherichia coli ATCC® 15225™ (94 TFM). All organisms were purchased from Microbiologics® and grown in the lab on Trypticase Soy Agar (TSA) at 35° C. The organisms were washed off of the agar into 0.1% peptone water and visually matched to a McFarland 0.5 Standard (equal to […]). Ten-fold serial dilutions were prepared for all chemicals tested in Mueller-Hinton II Broth (MH Broth). An initial 1:10 dilution in MH Broth was made and all subsequent dilutions were prepared by removing 1 mL from the previous dilution and transferring to a sterile MH Broth tube. For the initial screening, 1:10 serial dilutions were prepared through 1:1,000,000. One mL of the bacterial solution was added to each dilution tube and vortexed to mix. […] For subsequent round(s) of testing, the parts per million (ppm) of chemical was calculated and dilution tubes were prepared to bracket the ppm of growth/no-growth seen during the first round of testing. Each tube was prepared by adding in the calculated amount of MH Broth and test substance. The inoculation and incubation procedure was followed as stated above. […] For the second round of samples, each tube with no growth was streaked onto a Trypticase Soy Agar (TSA) plate to identify if the organism was still present in the tube but unable to grow in the presence of the chemical. All TSA plates were incubated for 18±4 hours at 37° C. and then observed for growth/no-growth.

[2] = tested on: Staphylococcus aureus ATCC 6538 and Escherichia coli ATCC 15225; experiment: as above; assay type: cell-based; conditions: upper bacteriostatic concentration limit of release agent; no initial growth in solution but growth after swabbing onto growth media plate

Row | Compound | Lower Limit from 24-hour growth (%) [1] [%] | Upper Limit from 1 min Exposure [2]
1 | CCCCCCCCCCCC(=O)NCCC[N+](C)(C)CC(=O)[O-] [Lauramidopropyle betaine] | 0.1 | 4.0
2 | CCCCCCCCOC(=O)CC(C(=O)OCCCCCCCC)S(=O)(=O)[O-].[Na+] (stereo not shown) [Dioctyl sulfosuccinate sodium salt] | 5.0 | 5.0
3 | Cocamidopropyl hydroxy sultaine | 0.5 | 45.0
4 | Cocamidopropyl betaine | 1.0 | 27.0
5 | Disodium Cocamphodiacetate | 2.0 | 36.0
